In PubChem BioAssay (NCI):
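1) Cells in 96-well plates. 2) Compound, 48 h, 5 concentrations. 3) Linear interpolation between surrounding doses. 4) Unreached endpoint = highest concentration. The concentration for 50% growth inhibition is given as GI50. Definition used: TGI = concentration required for complete inhibition of growth.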

Columns and labels:
Assay in all cases: NCI-60 cell line screen, 48 h
HT29 colon = test system: HT29 colon
UO-31 renal = test system: UO-31 renal
OVCAR-4 ovarian = test system: OVCAR-4 ovarian
COLO 205 colon = test system: COLO 205 colon
SK-OV-3 ovarian = test system: SK-OV-3 ovarian
HL-60(TB) leukemia = test system: HL-60(TB) leukemia
U251 CNS = test system: U251 CNS
NCI-H226 lung = test system: NCI-H226 lung
NCI-H23 lung = test system: NCI-H23 lung
T-47D breast = test system: T-47D breast

Compound: S=c1c2ccccc2c(=S)n2n1CC=CC2
- TGI (HT29 colon): > 100 µM
- TGI (UO-31 renal): > 100 µM
- TGI (OVCAR-4 ovarian): > 100 µM
- TGI (COLO 205 colon): > 100 µM
- TGI (SK-OV-3 ovarian): > 100 µM
- TGI (HL-60(TB) leukemia): > 100 µM
- TGI (U251 CNS): > 100 µM
- TGI (NCI-H226 lung): > 100 µM
- TGI (NCI-H23 lung): > 100 µM

Compound: COC(=O)C(=O)C(C(=O)C(=O)Nc1cc(Cl)c(Cl)cc1Cl)c1nc2ccc([N+](=O)[O-])cc2[nH]c1=O (stereo unspecified)
- TGI (UO-31 renal): > 100 µM
- TGI (OVCAR-4 ovarian): > 100 µM
- TGI (COLO 205 colon): > 100 µM
- TGI (SK-OV-3 ovarian): > 100 µM
- TGI (U251 CNS): > 100 µM
- TGI (NCI-H226 lung): > 100 µM
- TGI (NCI-H23 lung): > 100 µM

Compound: O=c1c2ccccc2nc(-c2ccccc2)n1NC(=S)Nc1cccc(Cl)c1
- TGI (HT29 colon): > 100 µM
- TGI (UO-31 renal): > 100 µM
- TGI (OVCAR-4 ovarian): > 100 µM
- TGI (COLO 205 colon): > 100 µM
- TGI (SK-OV-3 ovarian): > 100 µM
- TGI (HL-60(TB) leukemia): > 100 µM
- TGI (U251 CNS): > 100 µM
- TGI (NCI-H226 lung): > 100 µM
- TGI (NCI-H23 lung): > 100 µM

Compound: C/C(CC(=O)Nc1cccc([N+](=O)[O-])c1)=N\NC(=O)CC#N
- TGI (HT29 colon): > 100 µM
- TGI (UO-31 renal): > 100 µM
- TGI (COLO 205 colon): > 100 µM
- TGI (SK-OV-3 ovarian): > 100 µM
- TGI (HL-60(TB) leukemia): > 100 µM
- TGI (U251 CNS): > 100 µM
- TGI (NCI-H226 lung): > 100 µM
- TGI (NCI-H23 lung): > 100 µM

Compound: O=CCCCC(Sc1ccccc1)Sc1ccccc1
- TGI (UO-31 renal): 66.8 µM
- TGI (OVCAR-4 ovarian): 45.6 µM
- TGI (COLO 205 colon): 57.9 µM
- TGI (SK-OV-3 ovarian): 59.4 µM
- TGI (HL-60(TB) leukemia): 78.3 µM
- TGI (U251 CNS): 30.3 µM
- TGI (NCI-H23 lung): 27.3 µM

Compound: C#CCOCn1cnc2ncnc(N)c21
- TGI (HT29 colon): > 100 µM
- TGI (UO-31 renal): > 100 µM
- TGI (OVCAR-4 ovarian): > 100 µM
- TGI (COLO 205 colon): > 100 µM
- TGI (SK-OV-3 ovarian): > 100 µM
- TGI (U251 CNS): > 100 µM
- TGI (NCI-H226 lung): > 100 µM
- TGI (NCI-H23 lung): > 100 µM

Compound: COc1ccc2c([nH]c3c(O)c(-c4c(C)cc5c([nH]c6c(CC=C(C)C)c(OC)ccc65)c4O)c(C)cc32)c1CC=C(C)C
- TGI (HT29 colon): > 100 µM
- TGI (UO-31 renal): > 100 µM
- TGI (OVCAR-4 ovarian): > 100 µM
- TGI (COLO 205 colon): > 100 µM
- TGI (SK-OV-3 ovarian): > 100 µM
- TGI (HL-60(TB) leukemia): > 100 µM
- TGI (U251 CNS): > 100 µM
- TGI (NCI-H23 lung): > 100 µM

Compound: C/C(=N/O)c1ccc(Nc2cc(-n3ccnc3)c3ccccc3n2)cc1
- GI50 (HT29 colon): 8.34 µM
- TGI (HT29 colon): > 100 µM
- GI50 (UO-31 renal): 15.3 µM
- TGI (UO-31 renal): > 100 µM
- GI50 (T-47D breast): 9.96 µM
- TGI (T-47D breast): > 100 µM
- GI50 (COLO 205 colon): 11.8 µM
- TGI (COLO 205 colon): > 100 µM
- GI50 (SK-OV-3 ovarian): > 100 µM
- TGI (SK-OV-3 ovarian): > 100 µM
- GI50 (U251 CNS): 27.3 µM
- TGI (U251 CNS): > 100 µM
- GI50 (NCI-H226 lung): 30 µM
- TGI (NCI-H226 lung): 89 µM
- GI50 (NCI-H23 lung): 42 µM
- TGI (NCI-H23 lung): > 100 µM

Compound: CCOC(=O)CC(NC(=O)c1ccc(N=NN(C)C)cc1)C(=O)OCC (stereo unspecified)
- TGI (HT29 colon): > 100 µM
- TGI (UO-31 renal): > 100 µM
- TGI (OVCAR-4 ovarian): > 100 µM
- TGI (COLO 205 colon): > 100 µM
- TGI (SK-OV-3 ovarian): > 100 µM
- TGI (HL-60(TB) leukemia): > 100 µM
- TGI (U251 CNS): > 100 µM
- TGI (NCI-H226 lung): > 100 µM
- TGI (NCI-H23 lung): > 100 µM

Compound: CC(=O)[C-](C(C)=O)c1ccccc1.CC(=O)[C-](C(C)=O)c1ccccc1.CC(=O)[C-](C(C)=O)c1ccccc1.[Cl-].[Zr+4]
- GI50 (HT29 colon): > 100 µM
- TGI (HT29 colon): > 100 µM
- GI50 (UO-31 renal): > 100 µM
- TGI (UO-31 renal): > 100 µM
- GI50 (OVCAR-4 ovarian): > 100 µM
- TGI (OVCAR-4 ovarian): > 100 µM
- GI50 (COLO 205 colon): > 100 µM
- TGI (COLO 205 colon): > 100 µM
- GI50 (SK-OV-3 ovarian): > 100 µM
- TGI (SK-OV-3 ovarian): > 100 µM
- GI50 (HL-60(TB) leukemia): > 100 µM
- TGI (HL-60(TB) leukemia): > 100 µM
- GI50 (U251 CNS): 58 µM
- TGI (U251 CNS): > 100 µM
- GI50 (NCI-H226 lung): > 100 µM
- TGI (NCI-H226 lung): > 100 µM
- GI50 (NCI-H23 lung): > 100 µM
- TGI (NCI-H23 lung): > 100 µM

Compound: CC(=O)c1c2c(cc3c1CC1(C3)Cc3cc4c(c(C(=O)O)c3C1)CCC4)CCC2 (stereo unspecified)
- TGI (HT29 colon): > 100 µM
- TGI (UO-31 renal): 72.7 µM
- TGI (OVCAR-4 ovarian): > 100 µM
- TGI (COLO 205 colon): 68.1 µM
- TGI (HL-60(TB) leukemia): 35.6 µM
- TGI (U251 CNS): 70.6 µM
- TGI (NCI-H23 lung): 66.8 µM
